From ChEMBL document CHEMBL6109129, “Discovery of Conformationally Constrained Dihydro Benzo-Indole Derivatives as Metallo-β-Lactamase Inhibitors to Tackle Multidrug-Resistant Bacterial Infections” (J Med Chem, 2025)
Converted amounts (≈) assume the structure as drawn. The source made the active and inactive calls. No cut-off for these calls is given here.

Legend:
[1] = target: Metallo-beta-lactamase type 2 (Bacteria, UniProt C7C422); test: Inhibition of N-terminal truncated NDM1 (1 to 49N residues) (unknown origin) extracted from Escherichia coli BL21(DE3) cells using FC5 as substrate preincubated for 10 mins followed by substrate addition and measured immediately by fluorescence based analysis
Metallo-beta-lactamase type 2, sequence (C7C422 whole entry, the tested form may be a part): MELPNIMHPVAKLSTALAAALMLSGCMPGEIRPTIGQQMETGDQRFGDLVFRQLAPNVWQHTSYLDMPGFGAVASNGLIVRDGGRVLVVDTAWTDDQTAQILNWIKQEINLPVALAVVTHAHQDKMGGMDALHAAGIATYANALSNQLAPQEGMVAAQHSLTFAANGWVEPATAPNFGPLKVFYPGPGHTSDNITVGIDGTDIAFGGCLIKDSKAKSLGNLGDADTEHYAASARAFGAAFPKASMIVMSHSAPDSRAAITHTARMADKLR

[2] = Inhibition of IMP-1 (unknown origin) using FC5 as substrate preincubated for 10 mins followed by substrate addition and measured immediately by fluorescence based analysis; parameters: species or system Bacteria
[3] = Inhibition of VIM-1 (unknown origin) using FC5 as substrate preincubated for 10 mins followed by substrate addition and measured immediately by fluorescence based analysis; parameters: species or system Bacteria
Enterobacter cloacae = test: Antibacterial activity against carbapenem-resistant Enterobacter cloacae BAA-2468 assessed as reduction in microbial growth measured after 16 to 18 hrs by microbial dilution method; type: functional; settings: time 16-18 hrs
Klebsiella pneumoniae [4] = test: Antibacterial activity against carbapenem-resistant Klebsiella pneumoniae BAA-2473 assessed as reduction in microbial growth measured after 16 to 18 hrs by microbial dilution method; type: functional; settings: time 16-18 hrs
Escherichia coli [5] = test: microbe, parasite or virus in culture; settings: 567975
Description: Antibacterial activity against carbapenem-resistant Escherichia coli 567975 assessed as reduction in microbial growth measured after 16 to 18 hrs by microbial dilution method

Klebsiella pneumoniae [6] = test: Antibacterial activity against carbapenem-resistant Klebsiella pneumoniae 571278 assessed as reduction in microbial growth measured after 16 to 18 hrs by microbial dilution method; type: functional; settings: time 16-18 hrs
Klebsiella pneumoniae [7] = test: Antibacterial activity against carbapenem-resistant Klebsiella pneumoniae 538961 assessed as reduction in microbial growth measured after 16 to 18 hrs by microbial dilution method; type: functional; settings: time 16-18 hrs
Klebsiella pneumoniae [8] = test: Antibacterial activity against carbapenem-resistant Klebsiella pneumoniae 552439 assessed as reduction in microbial growth measured after 16 to 18 hrs by microbial dilution method; type: functional; settings: time 16-18 hrs
Klebsiella pneumoniae [9] = test: Antibacterial activity against carbapenem-resistant Klebsiella pneumoniae 565345 assessed as reduction in microbial growth measured after 16 to 18 hrs by microbial dilution method; type: functional; settings: time 16-18 hrs
[10] = tested on: Klebsiella pneumoniae subsp. pneumoniae; test: Antibacterial activity against carbapenem-resistant Klebsiella pneumoniae subsp. pneumoniae BAA-2472 assessed as reduction in microbial growth measured after 16 to 18 hrs by microbial dilution method; type: functional; settings: time 16-18 hrs
Klebsiella pneumoniae [11] = test: Anti-infective activity against carbapenem-resistant Klebsiella pneumoniae ATCC BAA 2146 expressing NDM-1 infected in neutropenic female BALB/c mouse deep thigh infection model assessed as reduction in bacterial count at 20 mg/kg, sc pre-infected with bacteria for 2 hrs followed by compound addition and measured after 26 hrs; type: functional
Escherichia coli [12] = test: Antibacterial activity against carbapenem-resistant Escherichia coli 571307 assessed as reduction in microbial growth measured after 16 to 18 hrs by microbial dilution method; type: functional; settings: time 16-18 hrs
Escherichia coli [13] = test: Antibacterial activity against carbapenem-resistant Escherichia coli BAA-2471 assessed as reduction in microbial growth measured after 16 to 18 hrs by microbial dilution method; type: functional; settings: time 16-18 hrs
Escherichia coli [14] = test: microbe, parasite or virus in culture; settings: 565988
Description: Antibacterial activity against carbapenem-resistant Escherichia coli 565988 assessed as reduction in microbial growth measured after 16 to 18 hrs by microbial dilution method

Escherichia coli [15] = test: microbe, parasite or virus in culture; settings: 541588
Description: Antibacterial activity against carbapenem-resistant Escherichia coli 541588 assessed as reduction in microbial growth measured after 16 to 18 hrs by microbial dilution method

Escherichia coli [16] = test: Antibacterial activity against carbapenem-resistant Escherichia coli BAA-2469 assessed as reduction in microbial growth measured after 16 to 18 hrs by microbial dilution method; type: functional; settings: time 16-18 hrs
[17] = tested on: Klebsiella pneumoniae subsp. pneumoniae; test: Antibacterial activity against carbapenem-resistant Klebsiella pneumoniae subsp. pneumoniae BAA-2470 assessed as reduction in microbial growth measured after 16 to 18 hrs by microbial dilution method; type: functional; settings: time 16-18 hrs
Klebsiella pneumoniae [18] = test: Synergistic antibacterial activity against Klebsiella pneumoniae ATCC BAA 2146 expressing NDM-1 measured after 16 to 18 hrs in presence of imipenem by microbial dilution method; type: functional, organism-based; settings: time 16-18 hrs
[19] = target: Metallo-beta-lactamase type 2 (Bacteria) (UniProt C7C422); test: Induction of thermal stabilization of NDM-1 (unknown origin) assessed as melting temperature at 6.25 uM by differential scanning fluorimetry analysis
Metallo-beta-lactamase type 2 (Bacteria), sequence (C7C422 whole entry): as the sequence (C7C422 whole entry, the tested form may be a part) above

[20] = target: Metallo-beta-lactamase type 2 (Bacteria) (UniProt C7C422); test: Induction of thermal stabilization of NDM-1 (unknown origin) assessed as melting temperature at 50 uM by differential scanning fluorimetry analysis
[21] = target: Metallo-beta-lactamase type 2 (Bacteria) (UniProt C7C422); test: Induction of thermal stabilization of NDM-1 (unknown origin) assessed as melting temperature at 12.5 uM by differential scanning fluorimetry analysis
Klebsiella pneumoniae [22] = test: Synergistic antibacterial activity against Klebsiella pneumoniae ATCC BAA 2146 expressing NDM-1 measured after 16 to 18 hrs in presence of meropenem by microbial dilution method; type: functional, organism-based; settings: time 16-18 hrs
[23] = target: Metallo-beta-lactamase type 2 (Bacteria) (UniProt C7C422); test: Induction of thermal stabilization of NDM-1 (unknown origin) assessed as increase in melting temperature by differential scanning fluorimetry analysis; settings: dose 3.12-50 µM
[24] = target: Metallo-beta-lactamase type 2 (Bacteria) (UniProt C7C422); test: Induction of thermal stabilization of NDM-1 (unknown origin) assessed as melting temperature at 3.12 uM by differential scanning fluorimetry analysis
[25] = target: Metallo-beta-lactamase type 2 (Bacteria) (UniProt C7C422); test: Induction of thermal stabilization of NDM-1 (unknown origin) assessed as melting temperature at 25 uM by differential scanning fluorimetry analysis

Row | Structure (SMILES) | IC50 [1] [nM] | IC50 [2] [nM] | IC50 [3] [nM] | also measured
1 | O=C(O)c1ccccn1 [2-PICOLINIC ACID] | 13700 | > 200000 | > 200000 | –
2 | O=C(O)c1[nH]c2c(c1-c1ccccc1Cl)CCc1ccccc1-2 | 3.1 | 990 | 217 | –
3 | O=C(O)c1[nH]c2c(c1-c1cccc(Cl)c1)CCc1ccccc1-2 | 2.5 | 350 | 468 | –
4 | O=C(O)c1[nH]c2c(c1-c1ccc(Cl)cc1Cl)CCc1ccccc1-2 | 2 | 9800 | 427 | –
5 | O=C(O)c1cc2c([nH]1)-c1ccccc1CC2 | 8200 | 23000 | 7000 | –
6 | COc1cc(F)ccc1-c1c(C(=O)O)[nH]c2c1CCc1ccccc1-2 | 23.6 | 1700 | 580 | –
7 | O=C(O)c1[nH]c2c(c1-c1cccc(F)c1F)CCc1ccccc1-2 | 268 | 2400 | 1900 | –
8 | O=C(O)c1[nH]c2c(c1-c1ccc(Cl)cc1)CCc1ccccc1-2 | 3.1 | 2100 | 1700 | –
9 | COc1ccc(F)cc1-c1c(C(=O)O)[nH]c2c1CCc1ccccc1-2 | 7.5 | 380 | 268 | –
10 | O=C(O)c1[nH]c2c(c1-c1cc(Cl)c(Cl)c(Cl)c1)CCc1ccccc1-2 | – | 1200 | 2200 | –
11 | O=C(O)c1[nH]c2c(c1-c1cncc(Cl)c1)CCc1ccccc1-2 | 2.3 | 1500 | 197 | –
12 | O=C(O)c1[nH]c2c(c1-c1ccccc1F)CCc1ccccc1-2 | 58 | 2300 | 613 | –
13 | O=C(O)c1[nH]c2c(c1-c1ccccc1)CCc1ccccc1-2 | 111 | 8500 | 3700 | –
14 | C[C@@H](O)[C@H]1C(=O)N2C(C(=O)O)=C(SCCNC=N)C[C@H]12 [IMIPENEM ANHYDROUS] | – | – | – | MIC (Enterobacter cloacae): > 64 µg/mL; MIC (Klebsiella pneumoniae [4]): > 64 µg/mL; MIC (Escherichia coli [5]): 16 µg/mL (≈ 53.4 µM); MIC (Klebsiella pneumoniae [6]): 16 µg/mL; MIC (Klebsiella pneumoniae [7]): 64 µg/mL; MIC (Klebsiella pneumoniae [8]): 32 µg/mL; MIC (Klebsiella pneumoniae [9]): 32 µg/mL; MIC [10]: > 64 µg/mL; Activity (Klebsiella pneumoniae [11]): ~1.15 log10CFU/ml; MIC (Escherichia coli [12]): 32 µg/mL; MIC (Escherichia coli [13]): 64 µg/mL; MIC (Escherichia coli [14]): 8 µg/mL (≈ 26.7 µM); MIC (Escherichia coli [15]): 8 µg/mL (≈ 26.7 µM); MIC (Escherichia coli [16]): 64 µg/mL; MIC [17]: 16 µg/mL
15 | Cc1cc(C)cc(-c2c(C(=O)O)[nH]c3c2CCc2ccccc2-3)c1 | 4.7 | 1200 | 330 | –
16 | O=C(O)c1[nH]c2c(c1-c1cccc(F)c1)CCc1ccccc1-2 | 8.1 | 3000 | 408 | –
17 | NCCN[C@H]1CC[C@H](CC(=O)N[C@H]2Cc3cccc(C(=O)O)c3OB2O)CC1 | – | 38000 | 104 | –

Row | Structure (SMILES) | IC50 [1] [nM] | IC50 [2] [nM] | IC50 [3] [nM] | also measured
18 | Cc1ccc(-c2c(C(=O)O)[nH]c3c2CCc2ccccc2-3)c(F)c1 | 7.7 | 4600 | 1500 | –
19 | O=C(O)c1[nH]c2c(c1-c1ccncc1)CCc1ccccc1-2 | 71 | 14000 | 2600 | –
20 | COc1cc(Cl)cc(-c2c(C(=O)O)[nH]c3c2CCc2ccccc2-3)c1 | – | 303 | 438 | –
21 | O=C(O)c1[nH]c2c(c1-c1cc(F)cc(Cl)c1)CCc1ccccc1-2 | 1.9 | 149 | 48 | Activity (Klebsiella pneumoniae [18]): Active; ΔTm [19]: 13 °C; Tm [20]: 17 °C; Tm [21]: 15 °C; Activity (Klebsiella pneumoniae [22]): Active; Activity [23]: Active; Tm [24]: 9 °C; Tm [25]: 16 °C
22 | CC(C)(C)c1ccc(-c2c(C(=O)O)[nH]c3c2CCc2ccccc2-3)cc1 | 15 | 8500 | 797 | –
23 | Cc1cc(C(=O)O)[nH]c1-c1ccccc1 | 10600 | 44000 | 96000 | –
24 | COc1ccccc1-c1c(C(=O)O)[nH]c2c1CCc1ccccc1-2 | 188 | 3000 | 1000 | –
25 | COc1cc(OC)cc(-c2c(C(=O)O)[nH]c3c2CCc2ccccc2-3)c1 | 5 | 914 | 308 | –
26 | O=C(O)c1[nH]c2c(c1-c1cccc(Cl)c1Cl)CCc1ccccc1-2 | 15 | 22000 | – | –
27 | O=C(O)c1[nH]c2c(c1-c1cc(F)cc(F)c1)CCc1ccccc1-2 | 47 | 5600 | 581 | –
28 | Cc1cc(Cl)cc(-c2c(C(=O)O)[nH]c3c2CCc2ccccc2-3)c1 | – | 320 | 557 | –
29 | COc1cc(F)cc(-c2c(C(=O)O)[nH]c3c2CCc2ccccc2-3)c1 | 6.8 | 15000 | 3500 | –
30 | O=C(O)c1[nH]c2c(c1-c1ccc(F)c(F)c1)CCc1ccccc1-2 | 2.9 | 6400 | 1100 | –
31 | O=C(O)c1[nH]c2c(c1-c1cncc(F)c1)CCc1ccccc1-2 | 62 | 4100 | 2100 | –
32 | COc1ccc(-c2c(C(=O)O)[nH]c3c2CCc2ccccc2-3)cc1 | 905 | – | 34000 | –
33 | C[C@@H](O)[C@H]1C(=O)N2C(C(=O)O)=C(S[C@@H]3CN[C@H](C(=O)N(C)C)C3)[C@H](C)[C@H]12 [MEROPENEM] | – | – | – | MIC (Enterobacter cloacae): > 64 µg/mL; MIC (Klebsiella pneumoniae [4]): > 64 µg/mL; MIC (Escherichia coli [5]): 64 µg/mL (≈ 167 µM); MIC (Klebsiella pneumoniae [6]): 64 µg/mL; MIC (Klebsiella pneumoniae [7]): > 64 µg/mL; MIC (Klebsiella pneumoniae [8]): > 64 µg/mL; MIC (Klebsiella pneumoniae [9]): 64 µg/mL; MIC [10]: > 64 µg/mL; MIC (Escherichia coli [12]): 64 µg/mL; MIC (Escherichia coli [13]): > 64 µg/mL; MIC (Escherichia coli [14]): 64 µg/mL (≈ 167 µM); MIC (Escherichia coli [15]): 64 µg/mL (≈ 167 µM); MIC (Escherichia coli [16]): 64 µg/mL; MIC [17]: 32 µg/mL
34 | O=C(O)c1[nH]c2c(c1-c1cc(Cl)cc(Cl)c1)CCc1ccccc1-2 | 8 | 428 | 34 | Activity (Klebsiella pneumoniae [18]): Active; ΔTm [19]: 1 °C; Tm [20]: 14 °C; Tm [21]: 8 °C; Activity (Klebsiella pneumoniae [22]): Active; Activity [23]: Active; Tm [25]: 11 °C
